The values below come from PubChem BioAssay (NCI).

Holding throughout (test): NCI anticancer screen, dose series, 48 h
Test [1] relates to HCT-116 colon.
Test [2] has as its system SW-620 colon.
Test [3] has as its system M14 melanoma.
The test system of test [4] is MOLT-4 leukemia.
For test [5], the system named is U251 CNS.
In test [6] the test system is SK-MEL-28 melanoma.
Test [7] deals with A498 renal.
Test [8] deals with SF-295 CNS.
Test [9] deals with UO-31 renal.
Test [10] relates to A549 NSCLC.
For test [11], the system named is HCC-2998 colon.
In test [12] the test system is T-47D breast.
Test [13] concerns OVCAR-5 ovarian.

Structures are written as SMILES. Several values for one entry are separate records, joined by “and”; a condition that tells them apart may be missing. Equal entries are not always repeated.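 96-well plates; 48 h exposure; 5 concentrations. Endpoints by linear interpolation between flanking doses. Not reached: highest tested concentration assigned. GI50: concentration for 50% inhibition of growth. The concentration for full growth arrest is given as TGI.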

Consider `N=S(c1ccccc1[N+](=O)[O-])c1ccccc1[N+](=O)[O-]`, for which the TGI in test [1] is 3.28 µM and 3.58 µM; in test [2], 2.95 µM and 10 µM; in test [3], 8.88 µM and 16.4 µM; in test [4] it was 4.7 µM and 20.4 µM; in test [5], 27.7 µM and 29.5 µM; in test [6], 10.9 µM and 11.3 µM. In addition, the TGI is 43.5 µM and 32.2 µM in [7]; 6.16 µM and 15.4 µM in test [8]; 3.94 µM and 7.44 µM in test [9]; 9.72 µM and 15.6 µM in test [10]; 7.11 µM and 9.66 µM in test [11]; 0.934 µM in [12]. Besides, the TGI in [13] is 7.69 µM and 11.8 µM. Further, the GI50 was 1.14 µM and 2.47 µM in [2]; 3.93 µM in test [4]; 14.5 µM and 16 µM in test [5]; 2.45 µM and 5.99 µM in test [8].
For `Cn1c(-c2ccccc2)cc(-c2ccc3c(c2)OCO3)c1-c1ccsc1`, the TGI in [1], in test [2], in test [3], in test [4], in test [5] and in [6] was more than 100 µM in each case. In addition, the TGI in test [7], in test [8], in [9], in test [10], in test [11] and in test [12] was more than 100 µM throughout. The TGI in test [13] is more than 100 µM.
